The subject of this experiment is Eimeria tenella. Put plainly: Minimum effective concentration (MEC) against Eimeria tenella to prevent infection and to maintain zero lesion scores. In kind it is functional. The note with it: read-out: MEC.

SMILES strings stand for the structures.

Consider `O=c1ccn(-c2cc(Cl)cc(Cl)c2)c(=O)[nH]1`, for which the minimal effective concentration was found to be 125 µg/mL.
With `O=c1ccn(-c2ccc(Oc3ccc(Cl)cc3)c(Cl)c2)c(=O)[nH]1`, the minimal effective concentration is more than 500 µg/mL.
For the molecule `Cc1cc(-n2ccc(=O)[nH]c2=O)cc(Cl)c1Sc1ccc(Cl)cc1`, the minimal effective concentration worked out at 60 µg/mL.
On to `Cc1cc(-n2ccc(=O)[nH]c2=O)cc(Cl)c1S(=O)(=O)c1ccc(Cl)cc1`, for which the minimal effective concentration is less than 125 µg/mL.
In the case of `Cc1cc(-n2ccc(=O)[nH]c2=O)cc(C)c1Sc1ccc(Cl)cc1`, the minimal effective concentration is 500 µg/mL.
With `Cc1cc(C)cc(-n2ccc(=O)[nH]c2=O)c1`, the minimal effective concentration was more than 250 µg/mL.

The values above are taken from ChEMBL document CHEMBL1122472, “Anticoccidial activity of 1-phenyluracils” (1983).
